Results as given in ChEMBL document CHEMBL4196088, “Induction of cell killing and autophagy by amphiphilic pyrrolidine derivatives on human pancreatic cancer cells” (Eur J Med Chem, 2018).
Activity calls are given as the source filed them. The calls are words filed in the database; no cut-off is given here.

system: PANC-1; experiment: Induction of apoptosis in human PANC1 cells assessed as accumulation at sub-G0/G1 phase at 10 uM after 48 hrs by propidium iodide staining based flow cytometry (reference value: 0.2 to 2.9%); format: functional; settings: not given

**Q.** For `Cl.NCC(=O)N1CCC[C@H]1COCCCCCCCCC/C=C/c1ccc(-c2ccccc2)cc1`, which Activity is on record?
**A.** Its Activity is 16.6%.

system: not listed separately; experiment: Induction of apoptosis in HPNE cells at 5 to 40 uM after 24 to 72 hrs by Annexin V/7-AAD staining based flow cytometry; format: cell-based; settings: human

**Q.** With `Cl.NCC(=O)N1CCC[C@H]1COCCCCCCCCC/C=C/c1ccc(-c2ccccc2)cc1` as the molecule, how does the Activity read?
**A.** The Activity was “Toxic”.

system: PANC-1; experiment: Induction of apoptosis in human PANC1 cells assessed as accumulation at sub-G0/G1 phase at 20 uM after 72 hrs by propidium iodide staining based flow cytometry (reference value: 1.6 to 3.2%); format: functional; settings: not given

**Q.** For `Cl.NCC(=O)N1CCC[C@H]1COCCCCCCCCC/C=C/c1ccc(-c2ccccc2)cc1`, which Activity is on record?
**A.** The Activity was 30.5%.

system: PANC-1; experiment: Induction of apoptosis in human PANC1 cells assessed as accumulation at sub-G0/G1 phase at 20 uM after 48 hrs by propidium iodide staining based flow cytometry (reference value: 0.2 to 2.9%); format: functional; settings: not given

**Q.** Which Activity does the source give for `Cl.NCC(=O)N1CCC[C@H]1COCCCCCCCCC/C=C/c1ccc(-c2ccccc2)cc1` here?
**A.** Its Activity is 13.3%.

system: Fibroblast; experiment: Induction of apoptosis in human primary fibroblasts at 5 to 40 uM after 24 to 72 hrs by Annexin V/7-AAD staining based flow cytometry; format: cell-based; settings: not given

**Q.** For `Cl.NCC(=O)N1CCC[C@H]1COCCCCCCCCC/C=C/c1ccc(-c2ccccc2)cc1`, which Activity is on record?
**A.** The Activity was “Toxic”.

system: PANC-1; experiment: Growth inhibition of human PANC1 cells after 72 hrs by XTT assay; format: functional, cell-based; settings: PANC-1, 72 h

**Q.** Which IC50 does the source give for `Cl.NCC(=O)N1CCC[C@H]1COCCCCCCCCC/C=C/c1ccc(-c2ccccc2)cc1` here?
**A.** The IC50 was 6.3 µM.

system: PK9; experiment: Induction of apoptosis in human PK9 cells at 5 to 40 uM after 24 to 72 hrs by Annexin V/7-AAD staining based flow cytometry; format: functional, cell-based; settings: not given

**Q.** With `Cl.NCC(=O)N1CCC[C@H]1COCCCCCCCCC/C=C/c1ccc(-c2ccccc2)cc1` as the molecule, how does the Activity read?
**A.** Its Activity is “Active”.

system: PANC-1; experiment: Induction of apoptosis in human PANC1 cells assessed as accumulation at sub-G0/G1 phase at 10 uM after 24 hrs by propidium iodide staining based flow cytometry (reference value: 0.6 to 0.7%); format: functional; settings: not given

**Q.** For `Cl.NCC(=O)N1CCC[C@H]1COCCCCCCCCC/C=C/c1ccc(-c2ccccc2)cc1`, which Activity is on record?
**A.** The Activity was 2%.

system: BXPC-3; experiment: Growth inhibition of human BxPC3 cells after 72 hrs by XTT assay; format: functional, cell-based; settings: BXPC-3, 72 h

**Q.** With `Cl.NCC(=O)N1CCC[C@H]1COCCCCCCCCC/C=C/c1ccc(-c2ccccc2)cc1` as the molecule, how does the IC50 read?
**A.** The IC50 was 7 µM.

system: PANC-1; experiment: Induction of apoptosis in human PANC1 cells assessed as accumulation at sub-G0/G1 phase at 20 uM after 24 hrs by propidium iodide staining based flow cytometry (reference value: 0.6 to 0.7%); format: functional; settings: not given

**Q.** For `Cl.NCC(=O)N1CCC[C@H]1COCCCCCCCCC/C=C/c1ccc(-c2ccccc2)cc1`, which Activity is on record?
**A.** Its Activity is 1.6%.

system: PANC-1; experiment: Induction of apoptosis in human PANC1 cells assessed as accumulation at sub-G0/G1 phase at 10 uM after 72 hrs by propidium iodide staining based flow cytometry (reference value: 1.6 to 3.2%); format: functional; settings: not given

**Q.** Which Activity does the source give for `Cl.NCC(=O)N1CCC[C@H]1COCCCCCCCCC/C=C/c1ccc(-c2ccccc2)cc1` here?
**A.** Its Activity is 35.8%.
